Experimental data as given in patent publication US20250302306A1, “TUMOR TARGETING PROBE FOR IMAGE GUIDED SURGICAL METHODS” (priority 2021, published 2025).

What was measured:
[1] = tested on: MDA-MB-231 or IOWA-IT orthotopic MFP xenograft tumors; assay: Intraoperative imaging of orthotopic xenografts, tumor recurrence follow-up
[2] = tested on: MDA-MB-231 human breast cancer tumors; assay: In vivo kinetic analysis: tumor/normal tissue NIR signal ratio (TBR); design: species or system athymic mice
Protocol: Since fluorescent imaging techniques rely on the concentration of each contrast agent, the optimum dose range for ICG-p28 in mice with MDA-MB-231 human breast cancer tumors was determined with the PDE unit. Each mouse was injected i.v. with ICG-p28 or ICG alone at 0.2-1.0 mg/kg (˜50 to 250 nM). The mice were imaged at various time points (6-72 hr), and the ratio of the NIR signal intensity of the tumor tissue and normal tissue (thigh) was calculated.
ICG-p28 or ICG alone was injected intravenously (i.v.) (tail vein) at 0.2, 0.5, or 1 mg/kg-b.w. Animals were imaged using an Odyssey scanner (LI-COR Biosciences) at 6-72 hr post i.v. administration. The tumor background ratio (TBR) was determined using ImageJ software (National Institutes of Health), where a region of interest (ROI) was drawn over the whole tumor and a background ROI was drawn over adjacent tissue. An ROI was manually generated around each tumor (800 nm channel).

TNBC PDX tumors [3] = assay: Histological analysis (H&E, Ki-67) of tumor margin samples; type: in vivo, NSG mice; details: H&E and Ki67 staining of margin samples
Protocol: We next performed traditional histological analyses with H&E and proliferative marker Ki67 staining on the set of tumor margin samples that were used for the Alu PCR assays.
Resected tissues were placed in containers prefilled with buffered 3.7% formalin (Anatech) and fixed for 24 hr. Formalin was replaced with 70% ethanol following fixation. Samples were paraffin-embedded, and blocks were cut into 4 μm-thick sections and mounted onto slides. H&E- and Ki-67-stained slides were analyzed by a pathologist blinded to the experimental groups and surgical resection results. The pathologist was responsible for determining a tumor's presence, margin status, and general characteristics of resected tissues.

[4] = tested on: multiple breast cancer animal models
MDA-MB-231-iRFP tumors = assay: Tumor margin assessment: colocalization with tumor marker iRFP, ex vivo Odyssey scan; type: in vivo, athymic mice; details: 0.5 mg/kg i.v., 24 hr
Protocol: In FIG. 3B, Athymic mice bearing MDA-MB-231-iRFP tumors were injected i.v. with either ICG-p28 or ICG alone at 0.5 mg/kg. Twenty-four hours after injection, representative ex vivo images of the tumour and surrounding soft tissues for the ICG-p28 group (top row) and the ICG alone group (bottom row) were taken with an Odyssey scanner. The dotted line in the images indicates the outer edge of the soft tissue. iRFP (red: 700 nm); ICG-p28 or ICG (green: 800 nm); and colocalization (yellow-orange). In FIG. 3C, Concordance rate of the fluorescent signal in each group [the ICG-p28 group (n=10) and the ICG alone group (n=5)]; **: P<0.01.
ICG-p28 or ICG alone at 0.5 mg/kg was injected i.v. into athymic mice inoculated with MDA-MB-231-iRFP cells; 24 hr later, the xenografted tumors and surrounding tissues were removed.
MDA-MB-231-iRFP cells (1.0×10^6 cells in 0.1 ml PBS) were inoculated s.c. into the right back of mice. Once mice developed tumors (˜200 mm^3), they were injected i.v. with ICG-p28 or ICG at 0.5 mg/kg-b.w. Twenty-four hours after injection, tumors and the surrounding tissue were resected. Specimens were imaged ex vivo with an Odyssey scanner with the 700 nm channel for iRFP and the 800 nm channel for ICG-p28 or ICG alone. The area measurements were performed using ImageJ. The mean±SD values were calculated.

[5] = ICG as used in clinical practice; cited from earlier work
TNBC PDX tumors [6] = assay: Detection of residual cancer cells in the tumor margin by huAlu PCR; type: in vivo, NSG mice; details: equivalent of ICG-p28 0.5 mg/kg i.v., margins at 6 and 12 o'clock
Protocol: During image-guided surgery, tumors with a 2-mm safety margin and the surrounding mammary tissues at the 6 and 12 o'clock positions were removed in real time under guidance of the PDE imaging system (FIG. 6A). These samples were collected to undergo huAlu PCR as well as traditional histological analyses.
Each agent was injected i.v. (tail vein) with the corresponding compound at the equivalent of ICG-p28 0.5 mg/kg-b.w. Twenty-four hours after injection, all surgical procedures were started under sterile conditions. Following anesthesia administration, the PDE imaging system was used to monitor NIR fluorescence throughout the entire surgical procedure. […] After tumor resection, the mice were kept in their cages for an additional four weeks and monitored for tumor recurrence. Tumor recurrence was monitored by palpitation of the surgical area. Four weeks after surgery, the mice were evaluated to determine whether any of the tumors had recurred due to remnant positive margins at the resection site.
A quantitative analysis using human-specific Alu sequence (huAlu) was performed on samples collected from the margins. […] We standardized the quantitative detection of huAlu in resected tumors and surrounding margin tissues according to previously published methods. […] The mean±SD values were calculated.

TNBC PDX tumors [7] = assay: Tumor recurrence follow-up after image-guided surgery in PDX model; type: in vivo, NSG mice
Protocol: Each agent was injected i.v. (tail vein) with the corresponding compound at the equivalent of ICG-p28 0.5 mg/kg-b.w. Twenty-four hours after injection, all surgical procedures were started under sterile conditions. Following anesthesia administration, the PDE imaging system was used to monitor NIR fluorescence throughout the entire surgical procedure. Tumors with a 2-mm safety margin and the surrounding mammary tissues at the 6 and 12 o'clock positions were removed in real time under guidance of the PDE imaging system. […] Following tumor excision, the skin incisions were closed using a nylon suture, and the mice were returned to their cages. After tumor resection, the mice were kept in their cages for an additional four weeks and monitored for tumor recurrence. Tumor recurrence was monitored by palpitation of the surgical area. Four weeks after surgery, the mice were evaluated to determine whether any of the tumors had recurred due to remnant positive margins at the resection site.

[8] = tested on: advanced solid tumors; recurrent and refractory CNS tumors; details: human, in vivo; cited from earlier work

Compound	adverse events related to administration during tumor removal ([1]; 0.5 mg/kg i.v.)	tumor recurrence at the surgical sites ([1]; 0.5 mg/kg i.v., four weeks after tumor resection) [%]	average volume of the recurrent tumors ([1]; four weeks after tumor resection) [mm3]	tumor/normal tissue ratio of NIR signal intensity ([2]; 0.2-1.0 mg/kg i.v., 24 hr, tumor vs thigh)	TBR ([2]; ICG alone, tumor site not distinguishable)	positive margin rate (TNBC PDX tumors [3]) [%]	tumor recurrence rate overall ([4]; multiple models combined, N of 24) [%]	average recurrent tumor volume overall ([4]; multiple subtypes of breast cancer combined)	concordance rate of 700 and 800 nm NIR signals (MDA-MB-231-iRFP tumors) [%]	half-life [5] [min]	log (huAlu DNA/mGAPDH DNA) in surrounding tissues (TNBC PDX tumors [6])	tumor recurrence rate for the surgical site (TNBC PDX tumors [7]; four weeks after image-guided surgery) [%]	average volume of the recurrent tumors (TNBC PDX tumors [7]; four weeks after surgical resection)	adverse effects, toxicity or immunogenicity [8]
CC1(C)C(/C=C/C=C/C=C/C=C2\N(CCCCS(=O)(=O)O)c3ccc4ccccc4c3C2(C)C)=[N+](CCCCS(=O)(=O)[O-])c2ccc3ccccc3c21 [ICG alone, indocyanine green]	no apparent adverse events	25.0	423	~1	~1.1	19	33	1,188 mm^3	12	2 to 4	−0.9	50.0	1,952 mm^3	
p28: peptide derived from Pseudomonas aeruginosa azurin, amino acids 50-77 (SEQ ID NO: 5)														no significant adverse effects, toxicity or immunogenicity
